For 9 compounds, T/C results are on record in PubChem BioAssay AID270 (DTP/NCI, 2004).

SMILES strings stand for the structures. “And” between values parts separate entries of the source, which are not always exact repeats. Identical values can stand only once. Records with an inconclusive call do not appear.

The subject of this experiment is BDF1 mice, s.c. Lewis lung carcinoma, T/C %. Kind of experiment: NCI In Vivo Anticancer Drug Screen. Data for tumor model Lewis Lung Carcinoma (subcutaneous) in B6D2F1 (BDF1) mice. In short, it runs like this: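 Tumor-bearing mice were treated with test compound, and either survival or tumor size was recorded. Values are the treated-group measurement divided by that of the vehicle-treated control group.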

[1] abbreviates: endpoint: mean tumor weight, dose: 25.0 mg/kg/injection, schedule: Q01DX011 (ip), vehicle: saline, higher = larger tumour.
Setting [2] is: endpoint: mean tumor weight, dose: 50.0 mg/kg/injection, schedule: Q01DX011 (ip), vehicle: saline, higher = larger tumour.
The mark [3] stands for this setting: endpoint: mean tumor weight, dose: 100.0 mg/kg/injection, schedule: Q01DX011 (ip), vehicle: saline, higher = larger tumour.

For the compound `O=c1cc(-c2ccccc2)oc2ccc(O)cc12`, the T/C is 109 % of control (endpoint: mean tumor weight, dose: 3.13 mg/kg/injection, schedule: Q01DX011 (ip), vehicle: saline, higher = larger tumour); 68 % of control (endpoint: mean tumor weight, dose: 6.25 mg/kg/injection, schedule: Q01DX011 (ip), vehicle: saline, higher = larger tumour); 77 % of control (endpoint: mean tumor weight, dose: 25.0 mg/kg/injection, schedule: Q01DX010 (ip), vehicle: saline, higher = larger tumour); 119 % of control under setting [1]; 101 % of control (endpoint: mean tumor weight, dose: 50.0 mg/kg/injection, schedule: Q01DX010 (ip), vehicle: saline, higher = larger tumour); 86 % of control (endpoint: mean tumor weight, dose: 100.0 mg/kg/injection, schedule: Q01DX010 (ip), vehicle: saline, higher = larger tumour). Also, the T/C (endpoint: mean tumor weight, dose: 200.0 mg/kg/injection, schedule: Q01DX010 (ip), vehicle: saline, higher = larger tumour) was 97 % of control.

For `O=C(O)c1cc(=O)cc(C(=O)O)o1`, the T/C was 66 % of control under setting [1], 76 % of control under setting [2] and 77 % of control under setting [3].

`O=[N+]([O-])c1ccc2c(N=Nc3c(O)ccc4ccccc34)c(O)cc(S(=O)(=O)O)c2c1`: the T/C reads like this: (endpoint: mean tumor weight, dose: 180.0 mg/kg/injection, schedule: Q01DX011 (ip), vehicle: saline, higher = larger tumour) 59 % of control; (endpoint: mean tumor weight, dose: 265.0 mg/kg/injection, schedule: Q01DX011 (ip), vehicle: saline, higher = larger tumour) 50 % of control; (endpoint: median survival time, dose: 50.0 mg/kg/injection, schedule: Q01DX009 (ip), vehicle: saline, higher = longer survival) 111 % of control; (endpoint: median survival time, dose: 100.0 mg/kg/injection, schedule: Q01DX009 (ip), vehicle: saline, higher = longer survival) 98 % of control; (endpoint: median survival time, dose: 200.0 mg/kg/injection, schedule: Q01DX009 (ip), vehicle: saline, higher = longer survival) 95 % of control.

Turning to `COc1cccc2c1C(=O)c1c(O)c3c(c(O)c1C2=O)C[C@@](O)(C(C)=O)C[C@@H]3OC1CC(N)C(O)C(C)O1` (stereo not given in full), the T/C runs as follows: (endpoint: mean tumor weight, dose: 0.6 mg/kg/injection, schedule: Q01DX011 (ip), vehicle: saline, higher = larger tumour) 85 % of control; (endpoint: mean tumor weight, dose: 1.0 mg/kg/injection, schedule: Q01DX011 (sc), vehicle: steriod suspending solution, higher = larger tumour) 116 % of control; (endpoint: mean tumor weight, dose: 1.2 mg/kg/injection, schedule: Q01DX011 (ip), vehicle: saline, higher = larger tumour) 89 % of control; (endpoint: mean tumor weight, dose: 1.8 mg/kg/injection, schedule: Q01DX011 (ip), vehicle: saline, higher = larger tumour) 69 % of control and 81 % of control; (endpoint: mean tumor weight, dose: 2.7 mg/kg/injection, schedule: Q01DX011 (ip), vehicle: saline, higher = larger tumour) 56 % of control; (endpoint: mean tumor weight, dose: 5.0 mg/kg/injection, schedule: Q01DX011 (sc), vehicle: steriod suspending solution, higher = larger tumour) 81 % of control. In addition, the T/C is 101 % of control and 104 % of control and 110 % of control (endpoint: median survival time, dose: 0.12 mg/kg/injection, schedule: Q01DX009 (ip), vehicle: saline, higher = longer survival); 92 % of control (endpoint: median survival time, dose: 125.0 micrograms/kg/injection, schedule: Q01DX009 (ip), vehicle: saline, higher = longer survival); 100 % of control (endpoint: median survival time, dose: 500.0 micrograms/kg/injection, schedule: Q01DX009 (ip), vehicle: saline, higher = longer survival); 90 % of control (endpoint: median survival time, dose: 1000.0 micrograms/kg/injection, schedule: Q01DX009 (ip), vehicle: saline, higher = longer survival); 97 % of control (endpoint: median survival time, dose: 2000.0 micrograms/kg/injection, schedule: Q01DX009 (ip), vehicle: saline, higher = longer survival).

For `NC1(C(=O)O)CCCC1`, the T/C by setting is: (endpoint: mean tumor weight, dose: 30.0 mg/kg/injection, schedule: Q01DX011 (ip), vehicle: saline, higher = larger tumour) 38 % of control and 61 % of control; (endpoint: mean tumor weight, dose: 60.0 mg/kg/injection, schedule: Q01DX011 (ip), vehicle: saline, higher = larger tumour) 25 % of control and 30 % of control; (endpoint: mean tumor weight, dose: 120.0 mg/kg/injection, schedule: Q01DX011 (ip), vehicle: saline, higher = larger tumour) 8 % of control; (endpoint: median survival time, dose: 1.6 mg/kg/injection, schedule: Q01DX009 (ip), vehicle: carboxymethylcellulose (CMC), higher = longer survival) 96 % of control; (endpoint: median survival time, dose: 6.25 mg/kg/injection, schedule: Q01DX009 (ip), vehicle: carboxymethylcellulose (CMC), higher = longer survival) 123 % of control.

For `COC1N(C2CC(O)C(CO)O2)C(=O)NC(=O)C1(F)Br` (stereo not given), the T/C is 45 % of control and 51 % of control and 55 % of control (endpoint: mean tumor weight, dose: 8.8 mg/kg/injection, schedule: Q01DX011 (ip), vehicle: saline, higher = larger tumour); 36 % of control and 56 % of control and 57 % of control (endpoint: mean tumor weight, dose: 13.3 mg/kg/injection, schedule: Q01DX011 (ip), vehicle: saline, higher = larger tumour); 13 % of control and 22 % of control (endpoint: mean tumor weight, dose: 20.0 mg/kg/injection, schedule: Q01DX011 (ip), vehicle: saline, higher = larger tumour); 110 % of control and 117 % of control (endpoint: median survival time, dose: 1.56 mg/kg/injection, schedule: Q01DX009 (ip), vehicle: saline, higher = longer survival); 110 % of control (endpoint: median survival time, dose: 3.12 mg/kg/injection, schedule: Q01DX009 (ip), vehicle: saline, higher = longer survival); 113 % of control (endpoint: median survival time, dose: 3.13 mg/kg/injection, schedule: Q01DX009 (ip), vehicle: saline, higher = longer survival). Further, the T/C reads like this: (endpoint: median survival time, dose: 6.25 mg/kg/injection, schedule: Q01DX009 (ip), vehicle: saline, higher = longer survival) 109 % of control and 277 % of control; (endpoint: median survival time, dose: 12.5 mg/kg/injection, schedule: Q01DX009 (ip), vehicle: saline, higher = longer survival) 279 % of control.

For `c1cn[nH]c1`, the T/C (endpoint: mean tumor weight, dose: 20.0 mg/kg/injection, schedule: Q01DX011 (ip), vehicle: water, higher = larger tumour) was 54 % of control; the T/C (endpoint: mean tumor weight, dose: 40.0 mg/kg/injection, schedule: Q01DX011 (ip), vehicle: water, higher = larger tumour) is 45 % of control; the T/C (endpoint: mean tumor weight, dose: 80.0 mg/kg/injection, schedule: Q01DX011 (ip), vehicle: water, higher = larger tumour) was 32 % of control.

With `O=C(/C=C/c1ccc(O)c(O)c1)c1ccc(O)c(O)c1O`, the T/C is, setting by setting: (endpoint: mean tumor weight, dose: 12.5 mg/kg/injection, schedule: Q01DX011 (ip), vehicle: saline, higher = larger tumour) 57 % of control; under setting [1], 89 % of control; under setting [2], 64 % of control; under setting [3], 59 % of control.

Take `O=C1C(=O)c2ccccc2C(O)=C1CC=C(Cl)Cl`: the T/C (endpoint: mean tumor weight, dose: 12.5 mg/kg/injection, schedule: Q01DX011 (ip), vehicle: carboxymethylcellulose (CMC), higher = larger tumour) was 88 % of control; the T/C (endpoint: mean tumor weight, dose: 25.0 mg/kg/injection, schedule: Q01DX011 (ip), vehicle: carboxymethylcellulose (CMC), higher = larger tumour) was 76 % of control; the T/C (endpoint: mean tumor weight, dose: 50.0 mg/kg/injection, schedule: Q01DX011 (ip), vehicle: carboxymethylcellulose (CMC), higher = larger tumour) was 90 % of control; the T/C (endpoint: mean tumor weight, dose: 50.0 mg/kg/injection, schedule: Q01DX011 (oral), vehicle: carboxymethylcellulose (CMC), higher = larger tumour) is 84 % of control; the T/C (endpoint: median survival time, dose: 12.5 mg/kg/injection, schedule: Q01DX009 (ip), vehicle: Klucel (hydroxypropylcellulose) (HPC), higher = longer survival) was 89 % of control and 100 % of control and 106 % of control; the T/C (endpoint: median survival time, dose: 25.0 mg/kg/injection, schedule: Q01DX009 (ip), vehicle: Klucel (hydroxypropylcellulose) (HPC), higher = longer survival) was 86 % of control and 94 % of control and 110 % of control. The T/C (endpoint: median survival time, dose: 34.0 mg/kg/injection, schedule: Q01DX009 (ip), vehicle: water, higher = longer survival) was 113 % of control; the T/C (endpoint: median survival time, dose: 50.0 mg/kg/injection, schedule: Q01DX009 (ip), vehicle: Klucel (hydroxypropylcellulose) (HPC), higher = longer survival) was 103 % of control and 110 % of control; the T/C (endpoint: median survival time, dose: 50.0 mg/kg/injection, schedule: Q01DX009 (ip), vehicle: water, higher = longer survival) was 110 % of control; the T/C (endpoint: median survival time, dose: 100.0 mg/kg/injection, schedule: Q01DX009 (ip), vehicle: Klucel (hydroxypropylcellulose) (HPC), higher = longer survival) is 117 % of control; the T/C (endpoint: median tumor weight (est.), dose: 12.5 mg/kg/injection, schedule: Q01DX009 (ip), vehicle: Klucel (hydroxypropylcellulose) (HPC), higher = larger tumour) was 93 % of control and 99 % of control; the T/C (endpoint: median tumor weight (est.), dose: 25.0 mg/kg/injection, schedule: Q01DX009 (ip), vehicle: Klucel (hydroxypropylcellulose) (HPC), higher = larger tumour) is 78 % of control and 86 % of control. In addition, the T/C was 87 % of control (endpoint: median tumor weight (est.), dose: 50.0 mg/kg/injection, schedule: Q01DX009 (ip), vehicle: Klucel (hydroxypropylcellulose) (HPC), higher = larger tumour) and 70 % of control (endpoint: median tumor weight (est.), dose: 100.0 mg/kg/injection, schedule: Q01DX009 (ip), vehicle: Klucel (hydroxypropylcellulose) (HPC), higher = larger tumour).
